Test system: Aphelenchoides besseyi
Assay: Soybean pot trial in the greenhouse, seed treatment, nematode control
Assay type: in vivo
Details: 28-day after inoculation assessment
Procedure: A soybean pot trial was carried out in the greenhouse of Holambra Field Station, state of Sao Paulo, Brazil, to evaluate the efficacy of nematicidal treatments against Aphelenchoides besseyi.
The seeds of the susceptible soybean variety Nidera 6828 IPRO were treated (seed treatment) at the field station with the use of a slurry (spray solution) of 0.6 liter per 100 kg of seeds of soybean. The treated seeds (treatments 3-10) were then compared with the untreated checks.
Two seeds were sowed in 1-liter pots with the Holambra Mix (25% of Holambra station soil and 75% pasteurized sand). […] The inoculation of each plant with the nematode was performed at 8 days after emergence (at the crop stage V1) by using a pipet with 1000 juveniles of Aphelenchoides per plant, directed to the base of the plant. Each plot of the trial was 1 pot containing 1 infested plant of soybean. A total of 6 replicates per treatment was used. The plants were grown in separated plastic chambers (to avoid contamination of plots) inside a greenhouse that averaged 30° C. in the day and 20° C. in the night. Plants were watered many times per day (for keeping a favourable environment for the growth of nematode population and migration to the aerial part of plants) by an automatic sprinkler system. […]

O=C(N[C@@H]1CC[C@@H]1c1ccc(Cl)cc1Cl)c1cccnc1C(F)(F)F (racemic) [cyclobutrifluram]
comparison to Avicta 500FS and Ilevo 600FS (even at the lowest rate tested of 5 g AI per 100 kg of seeds): statistically superior | activity against Aphelenchoides besseyi which attacked soybean (seed treatment): excellent activity

From patent US12628825B2, “Methods of controlling or preventing infestation of plants by plant-parasitic nematodes of the genus Aphelenchoides spp., especially Aphelenchoides besseyi” (SYNGENTA CROP PROTECTION AG, priority 2020, dated 2026)
